# ChEMBL document CHEMBL1125092, “Nonneurotoxic tetralin and indan analogues of 3,4-(methylenedioxy)amphetamine (MDA)” (J Med Chem, 1990)
# What was measured:
# Rattus norvegicus [1] = species: Rattus norvegicus; test: Bmax for compound was evaluated in rat cortical homogenate; assay type: tissue-based
# [2] = target: T1, Sodium-dependent serotonin transporter (Rattus norvegicus, UniProt P31652); test: Binding affinity was determined towards serotonin uptake site in presence of [3H]paroxetine radioligand in rat brain cortical homogenate; assay type: tissue-based
# [3] = target: T1, Sodium-dependent serotonin transporter; test: Binding affinity was determined towards serotonin uptake site in presence of [3H]paroxetine radioligand in rat hippocampal homogenate; assay type: tissue-based, Hippocampus
# Rattus norvegicus [4] = species: Rattus norvegicus; test: Bmax for compound was evaluated in rat hippocampal homogenate; assay type: tissue-based; details: Hippocampus
# Rattus norvegicus [5] = test: Hallucinogenic property was determined in groups of LSD trained rats and percentage of animals disrupted was reported at a dose 0.59(uM/kg), (number of animals = 11); assay type: functional
# Rattus norvegicus [6] = test: Percentage of animals disrupted was determined in groups of LSD trained rats at a dose of 1.17(uM/kg)(no. of animals =16); assay type: functional
# Rattus norvegicus [7] = test: Percentage of animals disrupted was determined in groups of LSD trained rats at a dose of 2.34(uM/kg) (no. of animals = 10); assay type: functional
# Rattus norvegicus [8] = test: Hallucinogenic property was determined in groups of MDMA trained rats and percentage of animals disrupted was reported at a dose 1.17 (umol/kg), (number of animals = 8); assay type: functional
# Rattus norvegicus [9] = test: Percentage of animals disrupted was determined in groups of MDMA trained rats at a dose 4.68 (uM/kg), (no.of animals=8); assay type: functional
# Rattus norvegicus [10] = test: Percentage of animals disrupted was determined in groups of LSD trained rats at a dose of 4.68(uM/kg) (no. of animals = 15); assay type: functional
# Rattus norvegicus [11] = test: Percentage of animals disrupted was determined in groups of LSD trained rats at a dose of 9.36(uM/kg) (no. of animals =6); assay type: functional
# Rattus norvegicus [12] = test: Percentage of animals disrupted was determined in groups of MDMA trained rats at a dose 2.34 (uM/kg), (no.of animals=10); assay type: functional
# Rattus norvegicus [13] = test: Percentage of animals disrupted was determined in groups of MDMA trained rats at a dose 9.36 (uM/kg), (no.of animals=10); assay type: functional
# Rattus norvegicus [14] = test: Monoamine levels in at hippocampus were evaluated after subcutaneous administration of 40 mg/kg for NE; assay type: functional
# Rattus norvegicus [15] = test: Monoamine levels in rat brain were evaluated after subcutaneous administration of 40 mg/kg for 5-HIAA; assay type: functional
# Rattus norvegicus [16] = test: Monoamine levels in rat brain were evaluated after subcutaneous administration of 40 mg/kg for 5-HT; assay type: functional
# Rattus norvegicus [17] = test: Monoamine levels in rat brain were evaluated after subcutaneous administration of 40 mg/kg for DA; assay type: functional
# Rattus norvegicus [18] = test: Monoamine levels in rat brain were evaluated after subcutaneous administration of 40 mg/kg for DOPAC; assay type: functional
# Rattus norvegicus [19] = test: Monoamine levels in rat brain were evaluated after subcutaneous administration of 40 mg/kg for HVA; assay type: functional
# Rattus norvegicus [20] = test: Monoamine levels in rat hippocampus were evaluated after subcutaneous administration of 40 mg/kg for 5-HIAA; assay type: functional
# Rattus norvegicus [21] = test: Monoamine levels in rat hippocampus were evaluated after subcutaneous administration of 40 mg/kg for 5-HT; assay type: functional
# Rattus norvegicus [22] = test: Tested for stimulus generation in rats trained to discriminate LSD from saline at a dose 0.59(uM/kg), (number of animals = 11); assay type: functional
# Rattus norvegicus [23] = test: Tested for stimulus generation in rats trained to discriminate LSD from saline at a dose 1.17 (umol/kg) (number of animals =16); assay type: functional
# Rattus norvegicus [24] = test: Tested for stimulus generation in rats trained to discriminate LSD from saline at a dose 2.34 (umol/kg) (number of animals = 10); assay type: functional
# Rattus norvegicus [25] = test: Tested for stimulus generation in rats trained to discriminate +/-MDMA from saline at 1.17 (umol/kg), (number of animals = 8); assay type: functional
# Rattus norvegicus [26] = test: Tested for stimulus generation in rats trained to discriminate +/-MDMA from saline at 4.68 (umol/kg), (number of animals = 8); assay type: functional
# Rattus norvegicus [27] = test: Tested for stimulus generation in rats trained to discriminate +/-MDMA from saline at 9.36 (umol/kg), (number of animals = 10); assay type: functional
# Rattus norvegicus [28] = test: Tested for stimulus generation in rats trained to discriminate LSD from saline at a dose 4.68 (umol/kg),(number of animals = 15); assay type: functional
# Rattus norvegicus [29] = test: Tested for stimulus generation in rats trained to discriminate +/-MDMA from saline at 2.34 (umol/kg), (number of animals = 10); assay type: functional
# Rattus norvegicus [30] = test: Monoamine levels in rat brain were evaluated after subcutaneous administration of 40 mg/kg for NE; assay type: functional
# T1 sequence (P31652 whole entry): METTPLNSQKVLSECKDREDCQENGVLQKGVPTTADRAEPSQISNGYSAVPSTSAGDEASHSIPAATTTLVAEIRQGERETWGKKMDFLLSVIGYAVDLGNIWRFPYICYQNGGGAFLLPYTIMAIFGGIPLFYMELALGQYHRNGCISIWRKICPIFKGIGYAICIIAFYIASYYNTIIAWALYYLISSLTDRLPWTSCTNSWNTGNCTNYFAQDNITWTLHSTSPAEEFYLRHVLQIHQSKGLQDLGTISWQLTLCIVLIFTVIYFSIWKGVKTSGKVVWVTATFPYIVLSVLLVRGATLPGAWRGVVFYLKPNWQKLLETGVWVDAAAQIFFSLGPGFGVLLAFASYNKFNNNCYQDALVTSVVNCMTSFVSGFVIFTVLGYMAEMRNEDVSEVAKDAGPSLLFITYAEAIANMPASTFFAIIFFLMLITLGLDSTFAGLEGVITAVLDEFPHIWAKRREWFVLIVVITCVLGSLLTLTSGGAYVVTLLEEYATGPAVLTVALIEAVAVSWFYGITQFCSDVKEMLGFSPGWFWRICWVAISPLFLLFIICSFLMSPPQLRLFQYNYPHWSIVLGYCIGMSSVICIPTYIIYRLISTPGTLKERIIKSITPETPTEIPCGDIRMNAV
compound,measurement,setting,value
NC1Cc2cc3c(cc2C1)OCO3,Bmax,Rattus norvegicus [1],918 fM/g
same,Kd,[2],0.104 nM
same,Kd,[3],0.127 nM
same,Bmax,Rattus norvegicus [4],675 fM/g
same,D,Rattus norvegicus [5],27%
same,D,Rattus norvegicus [6],50%
same,D,Rattus norvegicus [7],20%
same,D,Rattus norvegicus [8],0%
same,D,Rattus norvegicus [9],0%
same,D,Rattus norvegicus [10],47%
same,D,Rattus norvegicus [11],91%
same,D,Rattus norvegicus [12],20%
same,D,Rattus norvegicus [13],10%
same,Monoamine level,Rattus norvegicus [14],459 pg/mg
same,Monoamine level,Rattus norvegicus [15],329 pg/mg
same,Monoamine level,Rattus norvegicus [16],330 pg/mg
same,Monoamine level,Rattus norvegicus [17],130 pg/mg
same,Monoamine level,Rattus norvegicus [18],187 pg/mg
same,Monoamine level,Rattus norvegicus [19],193 pg/mg
same,Monoamine level,Rattus norvegicus [20],473 pg/mg
same,Monoamine level,Rattus norvegicus [21],273 pg/mg
same,SDL,Rattus norvegicus [22],13%
same,SDL,Rattus norvegicus [23],50%
same,SDL,Rattus norvegicus [24],38%
same,SDL,Rattus norvegicus [25],13%
same,SDL,Rattus norvegicus [26],63%
same,SDL,Rattus norvegicus [27],100%
same,SDL,Rattus norvegicus [28],25%
same,SDL,Rattus norvegicus [29],50%
same,Monoamine level,Rattus norvegicus [30],395 pg/mg
